The results in this text go back to US8859615B2, “Compounds, compositions and methods for reducing toxicity and treating or preventing diseases” (priority 2008, dated 2014).

Data set [1] deals with carrageenan-induced paw edema. The data set can be described thus: Carrageenan-induced paw edema. The class given is in vivo, CD mice. The following applies: FIG. 17; 10, 15, 20 mg/kg iv injection. The method, then:
FIG. 17 compares the anti-inflammatory effect of Compound (D), acetylsalicylic acid (aspirin), and LIDEX against carrageenan-induced paw edema in CD mice. […] The first vertical bar in each set is the control. The second vertical bar in each set is acetylsalicylic acid (200 mg/kg, oral). The third vertical bar in each set is LIDEX cream administered locally, the fourth vertical bar in each set is Compound (D) (10 mg/kg iv injection), the fifth vertical bar in each set is Compound (D) (15 mg/kg iv injection), and the sixth vertical bar in each set is Compound (D) (20 mg/kg iv injection). 1% Carrageenan (20 μL, i.m., injected directly into the paw of CD mice to produce paw edema) was administered at time=0. Compound (D) was administered at 24 hours prior to the carrageenan injection, 1 hour prior to the carrageenan injection, and 6 hours after the carrageenan injection. Acetylsalicylic acid was administered at 1 hour prior to the carrageenan injection, and 6 hours after the carrageenan injection. LIDEX cream was administered at 1 hour prior to the carrageenan injection, and 6 hours after the carrageenan injection. * means P<0.05 and ** means P<0.01.
The comparisons are made by comparing the volumes of the inflamed pedis area (induced by a injection of a 1% carageenan solution) at different time points after the initial carageenan injection. […]

Data set [2] deals with human colon carcinoma HCT-116 xenografts. The following applies: mouse, in vivo.
In the next data set the test system is A-549 lung carcinoma. The data set can be described thus: Cytotoxicity against solid tumor cells (Table 4). The data set is classed as cell-based. As to conditions: Homo sapiens, A549, CCK-8, 72 hrs. How it is done:
(§1) Compounds are also evaluated against A-549 lung carcinoma and SK-OV-3 ovarian adenocarcinoma cell lines using the methodology as for Table 3. The potency order for the compounds may vary in different tumor cell lines. […] Absorbance was measured using a Powerwave XS microplate spectrophotometer.

The test system of data set [3] is SK-OV-3 ovarian adenocarcinoma. The data set can be described thus: Cytotoxicity against solid tumor cells (Table 4). The data set is classed as cell-based. The following applies: Homo sapiens, CCK-8, 72 hrs. The method, then: as §1
The test system of data set [4] is human lymphoblastic leukemic T-cell growth. The data set can be described thus: Cytotoxic activity relative to stability during storage at −20° C. in DMSO (Table 10). The class given is cell-based. The following applies: Homo sapiens, CCRF-CEM, 72 h, XTT, 72 hr.
Data set [5] deals with quinone reductase (NQO1) in Hepa 1c1c7 murine hepatoma cells. In words: Phase 2 enzyme inducer activity (Prochaska microtiter plate bioassay). The method, then:
Pure panaxytriol was dissolved in dimethyl sulfoxide. Phase 2 enzyme inducer activity was measured using a rapid assay of activity of representative phase 2 enzyme in a cell line. This assay was originally developed by Prochaska and colleagues as in Prochaska H J, Santamaria A B, Talalay P. “Rapid detection of inducers of enzymes that protect against carcinogens.” Proc Natl Acad Sci US A 1992; 89:2394-2398, and has been further refined as in Fahey J W, Dinkova-Kostova A T, Stephenson K K, Talalay P. “The “Prochaska” microtiter plate bioassay for inducers of NQO1.” Methods Enzymol. 2004; 382:243-258, each of which are incorporated by reference in its entirety. Briefly, Hepa 1c1c7 murine hepatoma cells were grown in 96-well microtiter plates. Serial dilutions of the extracts or compounds which were assayed were added into the wells. After 48 hours, the cells were lysed and the activity of quinone reductase (NQO1) was assayed by the addition of a reaction mixture containing an NADPH-generating system, menadione and MTT. NQO1 catalyzes the reduction of menadione to menadiol by NADPH, and MTT is reduced nonenzymatically by menadiol, resulting in the formation of a blue color that can then be quantitated as in Prochaska H J, Santamaria A B. “Direct measurement of NAD(P)H:quinone reductase from cells cultured in microtiter wells: a screening assay for anticarcinogenic enzyme inducers.” Anal. Biochem. 1988; 169:328-336, which is incorporated by reference in its entirety. […] NQO1 activity and protein content of the lysate were measured in duplicate plates with an optical microtiter plate absorbance reader. […] One unit of inducer activity is defined as the amount that, when added to a single microtiter well, doubles the NQO1 specific activity. Sulforaphane and β-naphthoflavone were used as positive controls in each bioassay. […] NQO1 inducer activity was assayed as described herein, and is reported here as treated/control at different concentrations of ginseng extract or component per well. […] (+) Panaxytriol (molecular weight […]), (Δ) Protopanaxatriol (molecular weight 461), (◯) Korean red SUN GINSENG® extract. The reductase assay can also be performed as disclosed in PCT Publication No. WO 06/023821, the entire contents of which are hereby incorporated in the instant application.

Data set [6] relates to Rat pheochromocytoma cells (PC12 cells). In words: Neurite outgrowth with NGF. The class given is cell-based. As to conditions: 50 ng/mL NGF, 60 μM panaxytriol, 96 hr, vs NGF only. How it is done:
Rat pheochromocytoma cells (PC12 cells) were treated with 50 ng/mL of nerve growth factor (NGF) and with 60 μM panaxytriol for 96 hr. The cells were then compared with a similarly prepared control, lacking panaxytriol. […] This finding confirms that panaxytriol is useful for treating or preventing a neurotrophic disorder.

“Also recorded” adds a separate entry of the source. Like-named read-outs stand apart in the source and are kept apart here.

In the case of `C=C[C@H](O)C#CC#CC[C@H]1OC(C)(C)O[C@@H]1CCCCCCC` [Compound (D)], the anti-inflammatory effect result in data set [1] is given as “mild, slow on-set, anti-inflammatory effect”. In addition, in data set [2], the “effect of co-administration on iso-oxazole-fludelone toxicity (body weight)” value is recorded as “significantly reduces iso-oxazole-fludelone toxicity”. In addition, in data set [2] (po), the “body weight retention during Isodehydelone treatment” value is reported as “retained their body weight significantly better”. For the same compound, the IC50 turned out to be 2.85 µM with A-549 lung carcinoma and 5.08 µM in data set [3].
Consider `C=C[C@@H](O)C#CC#CC[C@@H](O)[C@H](O)CCCCCCC` [panaxytriol], for which the IC50 was found to be 11 µM in data set [4] (read-out: IC50 in μM CCRF-CEM, Table 10, Aug. 22, 2003 (Stored), same solution kept at −20° C. in DMSO); 6.34 µM in data set [4] (read-out: IC50 in μM CCRF-CEM, Table 10, Jul. 25, 2003 (Fresh)); 19.4 µM in data set [4] (read-out: IC50 in μM CCRF-CEM/VBL, Table 10, Aug. 22, 2003 (Stored), same solution kept at −20° C. in DMSO); 4.71 ± 0.73 µM in data set [4] (read-out: IC50 in μM CCRF-CEM/VBL, Table 10, Jul. 25, 2003 (Fresh)). For the same compound, the “potency as an inducer relative to protopanxadiol or protopanaxatriol” value in data set [5] is on record as “over 10 fold”. In addition, the “significant cytotoxicity observed above” value in data set [5] (Hepa 1c1c7 cells) is “above 0.5 μg/well”. The inducer potency in data set [5] (NQO1) is listed as 5,760,000 U/g. The “concentration of doubling (CD), average” value in data set [5] (NQO1, 48 hours) was determined as 3.85 µM. Also, in data set [6], the neurite outgrowth entry was “enhanced neurite outgrowth; also recorded: significant neurite outgrowth”.
